Drawing on patent US20190364899A1, “MICROBIOCIDAL OXADIAZOLE DERIVATIVES” (SYNGENTA PARTICIPATIONS AG, priority 2015, published 2019), this text covers inhibition of growth and pest or weed control for 21 compounds.

Read-outs that look alike come from different tables or passages of the source.

The subject of assay [1] is Glomerella Lagenarium (Colletotrichum Lagenarium). Description: Fungicidal activity against Glomerella lagenarium (Colletotrichum lagenarium) liquid culture / cucumber / preventative (anthracnose). Format: cell-based. The settings on record: Colletotrichum orbiculare, read-out: disease control. As for the experimental part:
(§1) General examples of leaf disk tests in well plates: Leaf disks or leaf segments of various plant species are cut from plants grown in a greenhouse. The cut leaf disks or segments are placed in multiwell plates (24-well format) onto water agar. The leaf disks are sprayed with a test solution before (preventative) or after (curative) inoculation. Compounds to be tested are prepared as DMSO solutions (max. 10 mg/ml) which are diluted to the appropriate concentration with 0.025% Tween20 just before spraying. The inoculated leaf disks or segments are incubated under defined conditions (temperature, relative humidity, light, etc.) according to the respective test system. A single evaluation of disease level is carried out 3 to 14 days after inoculation, depending on the pathosystem. Percent disease control relative to the untreated check leaf disks or segments is then calculated. General examples of liquid culture tests in well plates: Mycelia fragments or conidia suspensions of a fungus prepared either freshly from liquid cultures of the fungus or from cryogenic storage, are directly mixed into nutrient broth. DMSO solutions of the test compound (max. 10 mg/ml) are diluted with 0.025% Tween20 by a factor of 50 and 10 μl of this solution is pipetted into a microtiter plate (96-well format). The nutrient broth containing the fungal spores/mycelia fragments is then added to give an end concentration of the tested compound. The test plates are incubated in the dark at 24° C. and 96% relative humidity. The inhibition of fungal growth is determined photometrically after 2 to 7 days, depending on the pathosystem, and percent antifungal activity relative to the untreated check is calculated.
Example 4: Fungicidal Activity Against Glomerella Lagenarium (Colletotrichum Lagenarium) Liquid Culture/Cucumber/Preventative (Anthracnose)
Conidia of the fungus from cryogenic storage are directly mixed into nutrient broth (PDB—potato dextrose broth). After placing a (DMSO) solution of test compound into a microtiter plate (96-well format), the nutrient broth containing the fungal spores is added. The test plates are incubated at 24° C. and the inhibition of growth is measured photometrically 3 to 4 days after application.
The following compounds at 20 ppm in the applied formulation give at least 80% disease control in this test when compared to untreated control under the same conditions, which show extensive disease development.

The test system of assay [2] is Puccinia recondita f, Sp. Tritici. Description: Fungicidal activity against Puccinia recondita f. sp. tritici / wheat / leaf disc preventative (brown rust). Type of assay: in vivo. The conditions noted are these: foliar, 200 ppm in the applied formulation, wheat leaf segments cv. Kanzler, inoculated 1 day after application, compared to untreated, read-out: disease control. As for the experimental part: as §1
Example 1: Fungicidal Activity Against Puccinia recondita f, Sp. Tritici/Wheat/Leaf Disc Preventative (Brown Rust)
Wheat leaf segments cv. Kanzler were placed on agar in multiwell plates (24-well format) and sprayed with the formulated test compound diluted in water. The leaf disks were inoculated with a spore suspension of the fungus 1 day after application. The inoculated leaf segments were incubated at 19° C. and 75% relative humidity (rh) under a light regime of 12 hours light/12 hours darkness in a climate cabinet and the activity of a compound was assessed as percent disease control compared to untreated when an appropriate level of disease damage appears in untreated check leaf segments (7 to 9 days after application).
(§2) The following compounds at 200 ppm in the applied formulation give at least 80% disease control in this test when compared to untreated control leaf disks under the same conditions, which show extensive disease development.

The next assay concerns Phakopsora pachyrhizi. Description: Fungicidal activity against Phakopsora pachyrhizi / soybean / leaf disc preventative (Asian soybean rust). Format: in vivo. The settings on record: foliar, 200 ppm in the applied formulation, soybean leaf disks, inoculated one day after application, compared to untreated, read-out: disease control. As for the experimental part:
as §1
Example 3: Fungicidal Activity Against Phakopsora pachyrhizi/Soybean/Leaf Disc Preventative (Asian Soybean Rust)
Soybean leaf disks are placed on water agar in multiwell plates (24-well format) and sprayed with the formulated test compound diluted in water. One day after application leaf discs are inoculated by spraying a spore suspension on the lower leaf surface. After an incubation period in a climate cabinet of 24-36 hours in darkness at 20° C. and 75% rh leaf disc are kept at 20° C. with 12 h light/day and 75% rh. The activity of a compound is assessed as percent disease control compared to untreated when an appropriate level of disease damage appears in untreated check leaf disks (12 to 14 days after application).
as §2

The subject of assay [3] is Puccinia Recondite f. Sp. Tritici. Description: Fungicidal activity against Puccinia recondita f. sp. tritici / wheat / leaf disc curative (brown rust). The settings on record: foliar, 24 h, 200 ppm in the applied formulation, wheat leaf segments cv. Kanzler, applied 1 day after inoculation, compared to untreated, read-out: disease control. Type of assay: in vivo. On the procedure:
as §1
Example 2: Fungicidal Activity Against Puccinia Recondite f. Sp. Tritici Wheat/Leaf Disc Curative (Brown Rust)
Wheat leaf segments cv. Kanzler are placed on agar in multiwell plates (24-well format). The leaf segments are then inoculated with a spore suspension of the fungus. Plates were stored in darkness at 19° C. and 75% relative humidity. The formulated test compound diluted in water was applied 1 day after inoculation. The leaf segments were incubated at 19° C. and 75% relative humidity under a light regime of 12 hours light/12 hours darkness in a climate cabinet and the activity of a compound was assessed as percent disease control compared to untreated when an appropriate level of disease damage appears in untreated check leaf segments (6 to 8 days after application).
as §2

The mark [4] stands for this setting: 20 ppm in the applied formulation, liquid culture in PDB, growth inhibition measured photometrically 3 to 4 days after application, compared to untreated.

Consider `O=C(NCc1ccc(-c2noc(C(F)(F)F)n2)cc1)NCc1ccco1` [Compound 2.11, 1-(2-furylmethyl)-3-[[4-[5-(trifluoromethyl)-l,2,4-oxadiazol-3-yl]phenyl]methyl]urea], for which the inhibition of growth at 20 ppm in assay [1] (setting [4]) was not below 80%.

For the compound `O=C(NCc1ccc(-c2noc(C(F)(F)F)n2)cn1)Nc1ccc(Cl)cc1` [Compound 2.15, 1-(4-chlorophenyl)-3-[[5-[5-(trifluoromethyl)-1,2,4-oxadiazol-3-yl]-2-pyridyl]methyl]urea], the pest or weed control at 200 ppm in assay [2] is not below 80%. Besides, the inhibition of growth at 20 ppm in assay [1] (setting [4]) is not below 80%.

On to `O=C(NCc1ccc(-c2noc(C(F)(F)F)n2)cc1)NC1CCCCC1` [Compound 2.6, 1-cyclohexyl-3-[[4-[5-(trifluoromethyl)-1,2,4-oxadiazol-3-yl]phenyl]methyl]urea], for which the pest or weed control at 200 ppm in the assay on Phakopsora pachyrhizi was not below 80%.

As to `CN(CC1CC1)C(=O)NCc1ccc(-c2noc(C(F)(F)F)n2)cc1` [Compound 2.31, 1-(cyclopropylmethyl)-1-methyl-3-[[4-[5-(trifluoromethyl)-1,2,4-oxadiazol-3-yl]phenyl]methyl]urea], the pest or weed control at 200 ppm (in the assay on Phakopsora pachyrhizi; in assay [2]; in assay [3]) was not below 80% throughout. In addition, in assay [1] (setting [4]), the inhibition of growth at 20 ppm was not below 80%.

In the case of `CC1(NC(=O)NCc2ccc(-c3noc(C(F)(F)F)n3)cc2)CC1` [Compound 2.25, 1-(1-methylcyclopropyl)-3-[[4-[5-(trifluoromethyl)-1,2,4-oxadiazol-3-yl]phenyl]methyl]urea], the pest or weed control at 200 ppm with Phakopsora pachyrhizi was not below 80%.

Consider `O=C(NCc1ccc(-c2noc(C(F)(F)F)n2)cn1)NCc1ccco1` [Compound 2.16], for which the pest or weed control at 200 ppm in assay [2] is not below 80%. Further, the inhibition of growth at 20 ppm in assay [1] (setting [4]) is not below 80%.

Turning to `O=C(NCc1ccc(-c2noc(C(F)(F)F)n2)cn1)Nc1ccc(F)cc1` [Compound 2.13, 1-(4-fluorophenyl)-3-[[5-[5-(trifluoromethyl)-1,2,4-oxadiazol-3-yl]-2-pyridyl]methyl]urea], the pest or weed control at 200 ppm in assay [2] was not below 80%.

For `N#CC1(NC(=O)NCc2ccc(-c3noc(C(F)(F)F)n3)cc2)CC1` [Compound 2.24, 1-(1-cyanocyclopropyl)-3-[[4-[5-(trifluoromethyl)-1,2,4-oxadiazol-3-yl]phenyl]methyl]urea], the pest or weed control at 200 ppm (in the assay with Phakopsora pachyrhizi; in assay [2]; in assay [3]) was not below 80% each time.

For the compound `O=C(NCc1ccc(-c2noc(C(F)(F)F)n2)cn1)OCc1ccccc1` [Compound 1.6, benzyl N-[[5-[5-(trifluoromethyl)-l,2,4-oxadiazol-3-yl]-2-pyridyl]methyl] carbamate], the pest or weed control at 200 ppm in assay [2] and in assay [3] was not below 80% in each case. In addition, the inhibition of growth at 20 ppm in assay [1] (setting [4]) was not below 80%.

Consider `O=C(NCc1ccccc1)NCc1ccc(-c2noc(C(F)(F)F)n2)cn1` [Compound 2.12, 1-benzyl-3-[[5-[5-(trifluoromethyl)-1,2,4-oxadiazol-3-yl]-2-pyridyl]methyl]urea], for which, in assay [2], the pest or weed control at 200 ppm was not below 80%. Further, the inhibition of growth at 20 ppm in assay [1] (setting [4]) was not below 80%.

On to `O=C(NCc1ccc(-c2noc(C(F)(F)F)n2)cn1)Nc1ccccc1` [Compound 2.5, 1-phenyl-3-[[5-[5-(trifluoromethyl)-1,2,4-oxadiazol-3-yl]-2-pyridyl]methyl]urea], for which the pest or weed control at 200 ppm in assay [2] is not below 80%. Also, the inhibition of growth at 20 ppm in assay [1] (setting [4]) is not below 80%.

Regarding `O=C(NCc1ccc(-c2noc(C(F)(F)F)n2)cn1)Nc1ccccc1Cl` [Compound 2.19, 1-(2-chlorophenyl)-3-[[5-[5-(trifluoromethyl)-1,2,4-oxadiazol-3-yl]-2-pyridyl]methyl]urea], the pest or weed control at 200 ppm (in the assay on Phakopsora pachyrhizi; in assay [2]) was not below 80% each time. Further, the inhibition of growth at 20 ppm in assay [1] (setting [4]) was not below 80%.

Regarding `O=C(NCc1ccc(-c2noc(C(F)(F)F)n2)cn1)Nc1ccccc1F` [Compound 2.18, 1-(2-fluorophenyl)-3-[[5-[5-(trifluoromethyl)-1,2,4-oxadiazol-3-yl]-2-pyridyl]methyl]urea], the pest or weed control at 200 ppm in assay [2] is not below 80%. Further, the inhibition of growth at 20 ppm in assay [1] (setting [4]) was not below 80%.

For `O=C(NCc1ccc(-c2noc(C(F)(F)F)n2)cc1)OCc1ccccc1` [Compound 1.4, benzyl N-[[4-[5-(trifluoromethyl)-1,2,4-oxadiazol-3-yl]phenyl]methyl] carbamate], the pest or weed control at 200 ppm in assay [2] was not below 80%. The inhibition of growth at 20 ppm in assay [1] (setting [4]) is not below 80%.

`O=C(NCc1ccc(-c2noc(C(F)(F)F)n2)cc1)NC1CCCC1` [Compound 2.10, 1-cyclopentyl-3-[[4-[5-(trifluoromethyl)-1,2,4-oxadiazol-3-yl]phenyl]methyl]urea]: the pest or weed control at 200 ppm in assay [2] was not below 80%. In addition, in assay [1] (setting [4]), the inhibition of growth at 20 ppm was not below 80%.

Turning to `O=C(NCc1ccc(-c2noc(C(F)(F)F)n2)cc1)Nc1ccccc1` [Compound 2.7, 1-phenyl-3-[[4-[5-(trifluoromethyl)-1,2,4-oxadiazol-3-yl]phenyl]methyl]urea], the pest or weed control at 200 ppm (in the assay with Phakopsora pachyrhizi; in assay [2]) was not below 80% throughout. In assay [1] (setting [4]), the inhibition of growth at 20 ppm is not below 80%.

Turning to `O=C(NCc1ccccc1)NCc1ccc(-c2noc(C(F)(F)F)n2)cc1` [Compound 2.8, 1-benzyl-3-[[4-[5-(trifluoromethyl)-1,2,4-oxadiazol-3-yl]phenyl]methyl]urea], the pest or weed control at 200 ppm in assay [2] was not below 80%. Further, the inhibition of growth at 20 ppm in assay [1] (setting [4]) was not below 80%.

With `O=C(NCc1ccc(-c2noc(C(F)(F)F)n2)cc1)NC1CCC1` [Compound 2.9, 1-cyclobutyl-3-[[4-[5-(trifluoromethyl)-1,2,4-oxadiazol-3-yl]phenyl]methyl]urea], the pest or weed control at 200 ppm in assay [2] was not below 80%. In addition, the inhibition of growth at 20 ppm in assay [1] (setting [4]) is not below 80%.

In the case of `O=C(NCc1ccc(-c2noc(C(F)(F)F)n2)cn1)Oc1ccccc1` [Compound 1.5, phenyl N-[[5-[5-(trifluoromethyl)-1,2,4-oxadiazol-3-yl)-2-pyridyl]methyl] carbamate], the inhibition of growth at 20 ppm in assay [1] was not below 80%.

Turning to `CCN(CC1CC1)C(=O)NCc1ccc(-c2noc(C(F)(F)F)n2)cc1` [Compound 2.29, 1-(cyclopropylmethyl)-l-ethyl-3-[[4-[5-(trifluoromethyl)-1,2,4-oxadiazol-3-yl]phenyl]methyl]urea], the pest or weed control at 200 ppm (in the assay with Phakopsora pachyrhizi; in assay [2]) was not below 80% throughout. Also, the inhibition of growth at 20 ppm in assay [1] (setting [4]) was not below 80%.

As to `O=C(NCc1ccc(-c2noc(C(F)(F)F)n2)cc1)NC1COC1` [Compound 2.23, 1-(oxetan-3-yl)-3-[[4-[5-(trifluoromethyl)-1,2,4-oxadiazol-3-yl]phenyl]methyl]urea], the pest or weed control at 200 ppm (in the assay on Phakopsora pachyrhizi; in assay [2]) was not below 80% in each case.
